Where two headings read alike, the source gives them in different places.
Assays:
[1] = system: Karpas 299 lymphoma cell line positive for the oncogenic fusion protein NPM-ALK; test: Tritiated thymidine uptake cell proliferation assay, Karpas 299; format: cell-based; conditions: Homo sapiens
Experimental: (§1) Method: Tritiated Thymidine Uptake Cell Proliferation Assay
(§2) The following procedure was used with parent untransformed BaF3 cells, BaF3 cells transformed with the oncogenic fusion protein NPM/ALK, NPM/ALK positive SUDHL-1 cells, NPM/ALK positive SUPM2, ALK-negative HL60 cells, NPM/ALK positive KARPAS-299 cells. The parent untransformed BaF3 cells or Alk-negative HL60 cells are used as controls. Cells were seeded in U-bottomed 96-well plates at 10000 cells/well in a volume of 100 μl in supplemented medium. In the case of the parent untransformed BaF3 cells, the medium was supplemented with IL-3. Serial dilutions of inhibitors were added to the appropriate wells and volumes adjusted to 200 μl. Controls were treated with the equivalent volume of vehicle, DMSO, alone. Plates were incubated at 37° C. for 72 h. 3[H]-thymidine (1 μCi/well) was added for the last 16 h of incubation. Cells were harvested on to paper filters and 3[H]-thymidine incorporation was measured using a scintillation counter (1430 MicroBeta, Wallac, Turku, Finland). The 50% inhibitory concentration (IC50) was defined as the concentration of inhibitor, expressed in nanomolar units, that gave a 50% decrease in 3[H]-thymidine uptake compared with controls.
In Table 1 are listed results for selected examples of compounds of the invention, reported as percentage of inhibition of cell proliferation at 200 nM, obtained from cellular assays in Karpas 299 lymphoma cell line positive for the oncogenic fusion protein NPM-ALK.

[2] = biological target: T1, BaF3 cell line transfected with the oncogenic fusion protein NPM-ALK and expressing the mutation L1196M (Homo sapiens, UniProt Q9UM73, L1196M, cells depend on it); test: Tritiated thymidine uptake cell proliferation assay, BaF3 NPM-ALK L1196M; format: cell-based, murine; conditions: for % Inhibition BaF3 NPM-ALK L1196M cells: percentage of inhibition of cell proliferation at 200 nM; for GI50: averaged IC50 values of cell proliferation inhibition, class letters, read-out: IC50 BaF3 NPM-ALK L1196M cells
T1 construct: fused on or other part: P06748 (Nucleophosmin)
T1 sequence (Q9UM73 whole entry L1196M, the tested form may be a part): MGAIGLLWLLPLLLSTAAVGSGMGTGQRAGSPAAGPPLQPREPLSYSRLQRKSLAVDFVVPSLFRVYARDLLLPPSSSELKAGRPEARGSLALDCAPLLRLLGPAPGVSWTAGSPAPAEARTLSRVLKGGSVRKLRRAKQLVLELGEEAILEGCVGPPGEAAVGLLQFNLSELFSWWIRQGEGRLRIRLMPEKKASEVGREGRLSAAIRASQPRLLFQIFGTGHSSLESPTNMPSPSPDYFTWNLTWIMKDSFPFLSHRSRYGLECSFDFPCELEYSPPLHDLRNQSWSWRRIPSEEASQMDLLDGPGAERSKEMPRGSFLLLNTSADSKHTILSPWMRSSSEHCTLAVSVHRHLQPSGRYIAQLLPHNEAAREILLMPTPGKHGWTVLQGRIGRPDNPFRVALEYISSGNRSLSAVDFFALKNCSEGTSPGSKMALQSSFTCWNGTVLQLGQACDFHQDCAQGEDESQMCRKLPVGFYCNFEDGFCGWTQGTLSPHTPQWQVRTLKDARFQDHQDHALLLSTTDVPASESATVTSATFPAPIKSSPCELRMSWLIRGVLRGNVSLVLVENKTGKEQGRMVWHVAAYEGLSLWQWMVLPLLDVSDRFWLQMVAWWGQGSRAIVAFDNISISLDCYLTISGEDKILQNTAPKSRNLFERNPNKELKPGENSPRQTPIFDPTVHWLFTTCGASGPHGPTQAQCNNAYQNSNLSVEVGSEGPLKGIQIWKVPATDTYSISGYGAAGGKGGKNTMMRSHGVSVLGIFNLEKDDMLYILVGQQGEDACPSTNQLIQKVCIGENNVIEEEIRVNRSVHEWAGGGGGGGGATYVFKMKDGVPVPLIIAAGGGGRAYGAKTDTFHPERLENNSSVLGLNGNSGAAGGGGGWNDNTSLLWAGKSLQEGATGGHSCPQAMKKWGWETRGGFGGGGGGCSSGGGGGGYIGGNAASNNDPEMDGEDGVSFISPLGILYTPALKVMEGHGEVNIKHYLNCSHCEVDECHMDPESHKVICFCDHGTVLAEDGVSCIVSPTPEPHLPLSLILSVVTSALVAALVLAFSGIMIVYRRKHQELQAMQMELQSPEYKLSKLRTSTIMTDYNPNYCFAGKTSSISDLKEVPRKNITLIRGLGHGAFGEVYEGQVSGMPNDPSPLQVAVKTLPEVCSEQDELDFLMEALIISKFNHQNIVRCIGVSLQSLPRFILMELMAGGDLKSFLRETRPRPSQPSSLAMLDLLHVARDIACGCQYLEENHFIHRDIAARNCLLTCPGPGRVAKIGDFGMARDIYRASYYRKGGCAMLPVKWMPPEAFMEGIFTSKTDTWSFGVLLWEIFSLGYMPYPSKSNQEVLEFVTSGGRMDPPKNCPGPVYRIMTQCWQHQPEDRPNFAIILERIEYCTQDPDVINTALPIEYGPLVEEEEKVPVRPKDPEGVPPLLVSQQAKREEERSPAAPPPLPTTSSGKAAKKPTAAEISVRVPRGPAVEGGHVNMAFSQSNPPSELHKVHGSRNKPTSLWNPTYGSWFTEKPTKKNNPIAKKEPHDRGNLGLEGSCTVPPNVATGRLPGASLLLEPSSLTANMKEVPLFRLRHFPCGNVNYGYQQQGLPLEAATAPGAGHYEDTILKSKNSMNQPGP
Experimental: as §1, §2
In Table 2 are listed results for selected examples of compounds of the invention, reported as percentage of inhibition of cell proliferation at 200 nM, obtained from cellular assays in BaF3 cell line transfected with the oncogenic fusion protein NPM-ALK and expressing the mutation L1196M.
In Table 3 are listed averaged IC50 values of cell proliferation inhibition for selected examples of compounds of the present invention, obtained from cellular assays in BaF3 cell line transfected with the oncogenic fusion protein NPM-ALK and expressing the mutation L1196M. The letter “A” designates an IC50 value between 1 nM and 50 nM, the letter “B” designates an IC50 value between 50 nM and 100 nM, the letter “C” designates an IC50 value between 100 and 500 nM.

[3] = KARPAS-299, percentage of inhibition of cell proliferation at 200 nM, read-out: % Inhibition Karpas 299 cells
[4] = KARPAS-299, read-out: % Inhibition Karpas 299 cells

Row | % Inhibition BaF3 NPM-ALK L1196M cells [2] | GI50 [2] | Structure (SMILES) | inhibition at 0.2 µM [1, 3] | inhibition at 0.2 µM [1, 4]
1 | 61% | – | CN1CCN(c2ccc(C(=O)Nc3n[nH]c4cc(-c5ccccc5)c(Cc5cc(F)cc(F)c5)cc34)c(NC3CCOCC3)c2)CC1 [Example 23, N-[5-[(3,5-difluorophenyl)methyl]-6-phenyl-1H-indazol-3-yl]-4-(4-methylpiperazin-1-yl)-2-(tetrahydropyran-4-ylamino)benzamide] | 71% | –
2 | 100% | 1 to 50 nM | CN1CCN(c2ccc(C(=O)Nc3n[nH]c4cc(-c5ccc(O)c(F)c5)c(Cc5cc(F)cc(F)c5)cc34)c(NC3CCOCC3)c2)CC1 [Example 25, N-[5-[(3,5-difluorophenyl)methyl]-6-(3-fluoro-4-hydroxy-phenyl)-1H-indazol-3-yl]-4-(4-methylpiperazin-1-yl)-2-(tetrahydropyran-4-ylamino)benzamide] | 100% | –
3 | 99% | 1 to 50 nM | CN1CCN(c2ccc(C(=O)Nc3n[nH]c4cc(-c5ccc6[nH]ncc6c5)c(Cc5cc(F)cc(F)c5)cc34)c(NC3CCOCC3)c2)CC1 [Example 26, N-[5-[(3,5-difluorophenyl)methyl]-6-(1H-indazol-5-yl)-1H-indazol-3-yl]-4-(4-methylpiperazin-1-yl)-2-(tetrahydropyran-4-ylamino)benzamide] | 99% | –
4 | 62% | – | CN1CCN(c2ccc(C(=O)Nc3n[nH]c4cc(-c5cncnc5)c(Cc5cc(F)cc(F)c5)cc34)c(NC3CCOCC3)c2)CC1 [Example 27, N-[5-[(3,5-difluorophenyl)methyl]-6-(pyrimidin-5-yl)-1H-indazol-3-yl]-4-(4-methylpiperazin-1-yl)-2-(tetrahydropyran-4-ylamino)benzamide] | 87% | –
5 | 60% | – | CN1CCN(c2ccc(C(=O)Nc3n[nH]c4cc(-c5ccc6c(c5)C(=O)NC6)c(Cc5cc(F)cc(F)c5)cc34)c(NC3CCOCC3)c2)CC1 [Example 28, N-[5-[(3,5-difluorophenyl)methyl]-6-(3-oxoisoindolin-5-yl)-1H-indazol-3-yl]-4-(4-methylpiperazin-1-yl)-2-(tetrahydropyran-4-ylamino)benzamide] | 55% | –
6 | 98% | 50 to 100 nM | CN1CCN(c2ccc(C(=O)Nc3n[nH]c4cc(-c5cnc6[nH]ccc6c5)c(Cc5cc(F)cc(F)c5)cc34)c(NC3CCOCC3)c2)CC1 [Example 29, N-[5-[(3,5-difluorophenyl)methyl]-6-(1H-pyrrolo[2,3-b]pyridin-5-yl)-1H-indazol-3-yl]-4-(4-methylpiperazin-1-yl)-2-(tetrahydropyran-4-ylamino)benzamide] | 100% | –
7 | 100% | 1 to 50 nM | Cc1cc(O)ccc1-c1cc2[nH]nc(NC(=O)c3ccc(N4CCN(C)CC4)cc3)c2cc1Cc1cc(F)cc(F)c1 [Example 34, N-[5-[(3,5-difluorophenyl)methyl]-6-(4-hydroxy-2-methyl-phenyl)-1H-indazol-3-yl]-4-(4-methylpiperazin-1-yl)benzamide] | 100% | –
8 | 96% | 50 to 100 nM | CN1CCN(c2ccc(C(=O)Nc3n[nH]c4cc(-c5ccc6[nH]ncc6c5)c(Cc5cc(F)cc(F)c5)cc34)cc2)CC1 [Example 35, N-[5-[(3,5-difluorophenyl)methyl]-6-(1H-indazol-5-yl)-1H-indazol-3-yl]-4-(4-methylpiperazin-1-yl)benzamide] | 100% | –

Row | Structure (SMILES) | % Inhibition BaF3 NPM-ALK L1196M cells [2] | GI50 [2] | inhibition at 0.2 µM [1, 3] | inhibition at 0.2 µM [1, 4]
9 | CN1CCN(c2ccc(C(=O)Nc3n[nH]c4cc(-c5ccc(O)cc5)c(Cc5cc(F)cc(F)c5)cc34)cc2)CC1 [Example 33, N-[5-[(3,5-difluorophenyl)methyl]-6-(4-hydroxyphenyl)-1H-indazol-3-yl]-4-(4-methylpiperazin-1-yl)benzamide] | 99% | 1 to 50 nM | – | 100%
10 | CN1CCN(c2ccc(C(=O)Nc3n[nH]c4cc(-c5ccc(O)cc5)c(Cc5cccc(F)c5)cc34)c(NC3CCOCC3)c2)CC1 [Example 38, N-[5-[(3-fluorophenyl)methyl]-6-(4-hydroxyphenyl)-1H-indazol-3-yl]-4-(4-methylpiperazin-1-yl)-2-(tetrahydropyran-4-ylamino)benzamide] | 100% | 1 to 50 nM | – | 100%
11 | COCCNc1cc(N2CCN(C)CC2)ccc1C(=O)Nc1n[nH]c2cc(-c3ccc(O)c(F)c3)c(Cc3cccc(F)c3)cc12 [Example 42, N-[6-(3-fluoro-4-hydroxy-phenyl)-5-[(3-fluorophenyl)methyl]-1H-indazol-3-yl]-2-(2-methoxyethylamino)-4-(4-methylpiperazin-1-yl)benzamide] | 93% | 50 to 100 nM | – | 100%

— patent US10336707B2, “Heterocyclic derivatives modulating activity of certain protein kinases” (EUDENDRON S.R.L., priority 2014, dated 2019)
